According to the supplement of paper PMC7017272:
± gives the standard deviation of the averaged measurements.

Tests used:
Details in all cases: treatment time: 3 days
UT-SCC-24A [1] = test: relative IC50 (midpoint of the fitted curve; maximal inhibition may be below 50%); higher = less potent
Procedure: (§1)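 HNSCC cell lines (500 cells/well, 384-well) were cultured on plastic, on top of (2D) or embedded (3D) in Matrigel or human leiomyoma matrix Myogel (500 ug/mL; Myogel 3D mixed with rat collagen I). Cells were treated for 3 days with 5 ten-fold concentrations of each drug, and viability was read by CellTiter-Glo. Viability was normalised to DMSO (0% inhibition) and 100 uM benzethonium chloride (100% inhibition) controls and fitted with the FIMM DSRT pipeline to give IC50 (nM), maximal % inhibition and the drug sensitivity score (DSS). Suffixes _1/_2/_3 on drug names are replicates.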

UT-SCC-24A [2] = test: drug sensitivity score (DSS); higher = more sensitive
Procedure: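 HNSCC cell lines (500 cells/well, 384-well) were cultured on plastic, on top of (2D) or embedded (3D) in Matrigel or human leiomyoma matrix Myogel (500 ug/mL; Myogel 3D mixed with rat collagen I). Cells were treated for 3 days with 5 ten-fold concentrations of each drug, and viability was read by CellTiter-Glo. Suffixes _1/_2/_3 on drug names are replicates.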

UT-SCC-42A = test: drug sensitivity score (DSS); higher = more sensitive; extreme values may be limits of the assay
Method in brief: (§2)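 Three growth formats were used for HPV-negative HNSCC cell lines in 384-well plates at 500 cells/well: bare plastic, wells coated with Matrigel or Myogel (500 µg/mL), and embedding in Matrigel or Myogel plus rat collagen I. Compounds were added at five 10-fold concentrations, and after 3 days CellTiter-Glo 2.0 luminescence was recorded and normalised to vehicle (0.1% DMSO) and cell-killing control wells. IC50, maximal inhibition and drug sensitivity score came from percent-inhibition dose–response fitting in the FIMM pipeline.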

UT-SCC-14 = test: as above
Method in brief: as §2

UT-SCC-106A = test: as above
Method in brief: as §2

UT-SCC-42B = test: as above
Method in brief: as §2

UT-SCC-81 = test: maximal % inhibition of viability relative to DMSO; higher = stronger effect
Procedure: as §1, with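 “DMSO” for “DMSO (0% inhibition)”, “and” for “and 100 uM”, “chloride” for “chloride (100% inhibition)”, “DSS.” for “the drug sensitivity score (DSS).”, “_1/_2/_3” for “_1/_2/_3 on drug names”, “replicates. Only inhibition-mode (IC50) fits are kept.” for “replicates.”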

UT-SCC-24B = test: as above
Procedure: as §1, with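 “DMSO” for “DMSO (0% inhibition)”, “and” for “and 100 uM”, “chloride” for “chloride (100% inhibition)”, “DSS.” for “the drug sensitivity score (DSS).”, “_1/_2/_3” for “_1/_2/_3 on drug names”, “replicates. Only inhibition-mode (IC50) fits are kept.” for “replicates.”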

UT-SCC-28 = test: as above
Procedure: as §1, with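 “DMSO” for “DMSO (0% inhibition)”, “and” for “and 100 uM”, “chloride” for “chloride (100% inhibition)”, “DSS.” for “the drug sensitivity score (DSS).”, “_1/_2/_3” for “_1/_2/_3 on drug names”, “replicates. Only inhibition-mode (IC50) fits are kept.” for “replicates.”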

[3] = culture condition: embedded in Matrigel
[4] = culture condition: on top of Matrigel
[5] = culture condition: plastic 2D (no matrix)
[6] = culture condition: embedded in Myogel + collagen I
[7] = culture condition: on top of Myogel

relative IC50 (UT-SCC-24A [1]; [3]): 1.4 nM | relative IC50 (UT-SCC-24A [1]; [4]): 1.34 nM | relative IC50 (UT-SCC-24A [1]; [5]): 1.07 nM
SMILES: CC(=O)Nc1cccc(-n2c(=O)n(C3CC3)c(=O)c3c(Nc4ccc(I)cc4F)n(C)c(=O)c(C)c32)c1 [Trametinib]
drug sensitivity score (UT-SCC-24A [2]; [3]): 20.2 ± 1.9 DSS | drug sensitivity score (UT-SCC-24A [2]; [6]): 8.77 ± 2.7 DSS | drug sensitivity score (UT-SCC-24A [2]; [4]): 18.9 ± 1.5 DSS | drug sensitivity score (UT-SCC-24A [2]; [7]): 3.8 ± 1.6 DSS | drug sensitivity score (UT-SCC-24A [2]; [5]): 18.2 ± 2.1 DSS | drug sensitivity score (UT-SCC-42A; [3]): 7.6 ± 5.4 DSS | drug sensitivity score (UT-SCC-42A; [6]): 2.57 ± 2.8 DSS | drug sensitivity score (UT-SCC-42A; [4]): 10.5 ± 0.9 DSS | drug sensitivity score (UT-SCC-42A; [7]): 6.97 ± 0.8 DSS | drug sensitivity score (UT-SCC-42A; [5]): 5.87 ± 3.6 DSS | drug sensitivity score (UT-SCC-14; [3]): 9.3 ± 2.1 DSS | drug sensitivity score (UT-SCC-14; [6]): 6.63 ± 3.8 DSS | drug sensitivity score (UT-SCC-14; [4]): 6.5 ± 3.7 DSS | drug sensitivity score (UT-SCC-14; [7]): 3.43 ± 1.8 DSS | drug sensitivity score (UT-SCC-14; [5]): 2.23 ± 1.9 DSS | drug sensitivity score (UT-SCC-106A; [3]): 15.3 ± 2.4 DSS | drug sensitivity score (UT-SCC-106A; [6]): 0.6 ± 0.6 DSS | drug sensitivity score (UT-SCC-106A; [4]): 16.9 ± 1.2 DSS | drug sensitivity score (UT-SCC-106A; [7]): 3.1 ± 2.4 DSS | drug sensitivity score (UT-SCC-106A; [5]): 17.3 ± 0.72 DSS | drug sensitivity score (UT-SCC-42B; [3]): 17.6 ± 2.3 DSS | drug sensitivity score (UT-SCC-42B; [4]): 9.67 ± 0.84 DSS | drug sensitivity score (UT-SCC-42B; [7]): 1.4 ± 1.4 DSS | drug sensitivity score (UT-SCC-42B; [5]): 3.77 ± 2.9 DSS | maximal % inhibition of viability (UT-SCC-81; [3]): 84.9 ± 2.4% | maximal % inhibition of viability (UT-SCC-81; [6]): 24.5 ± 2.6% | maximal % inhibition of viability (UT-SCC-81; [4]): 78.6 ± 2.9% | maximal % inhibition of viability (UT-SCC-81; [7]): 27.8 ± 11% | maximal % inhibition of viability (UT-SCC-81; [5]): 44.1 ± 8.9% | maximal % inhibition of viability (UT-SCC-24B; [3]): 67.1 ± 3.1% | maximal % inhibition of viability (UT-SCC-24B; [6]): 66.5 ± 3.8% | maximal % inhibition of viability (UT-SCC-24B; [4]): 67.53 ± 0.29% | maximal % inhibition of viability (UT-SCC-24B; [7]): 59.1 ± 4.8% | maximal % inhibition of viability (UT-SCC-24B; [5]): 78.8 ± 1.7% | maximal % inhibition of viability (UT-SCC-28; [3]): 36.7 ± 7.8% | maximal % inhibition of viability (UT-SCC-28; [6]): 29.7 ± 26% | maximal % inhibition of viability (UT-SCC-28; [4]): 35.1 ± 7.7%
